Where only a bound is given, the exact number is not on record here.

Series [1] concerns PHD2. The arrangement: method as in PMID 16782814. Particulars: reversible iron-binding inhibitor; cited from earlier work.
Another series concerns the target T1, PHD2_181–426 (Homo sapiens, UniProt Q9GZT9).
T1 construct: PHD2_181–426 (hereafter PHD2); His6 (N, cleaved yes); made in house; host or cells: bacterial culture (2x TY, kanamycin, IPTG)
The series can be described thus: Non-denaturing ESI-MS of covalent adduct formation with PHD2. Type of series: binding. To be noted: for covalent modification of PHD2: analogues of 1/2, compared with 1/2; for condensation (covalent adduct) with PHD2 after 5 min: equimolar PHD2 (20 μM), Fe(II) and compound; for covalent reaction with PHD2 after 20 min: equimolar PHD2 and Fe(II), cone voltage 200 V. How it is done:
The interaction of the ligands with PHD2_181–426 (hereafter PHD2) was examined by non-denaturing ESI-MS, using cone voltage variation to distinguish covalent and non-covalent complexes (non-covalent interactions are typically preserved at cone voltages of 50–80 V, and dissociated at 200 V).[16]–[18] Aldehydes 1 and 2 were incubated with equimolar PHD2 and Fe(II) (37 °C; 5 or 20 min). […] Without Fe(II), neither covalent nor non-covalent adducts were observed, implying covalent conjugation involves active site Fe(II) binding, with subsequent condensation.
Fig. S2 A) Schematic representation of the assigned species formed on addition of 1 or 2 to PHD2. The results support initial non-covalent binding of the inhibitors to PHD2.Fe(II) to form B. Subsequently, condensation of a lysine residue with the aldehyde forms the covalent adduct C. (B) and (C): Non-denaturing ESI-MS data support the covalent crosslinking of 1/2 with PHD2. Conditions: PHD2 (20 µM) was incubated (37 °C, 5 or 20 min) with equimolar FeSO4 and 1 or 2, and the resulting mixtures were analysed by ESI-MS (cone voltage: 50 V or 200 V). Labelled peaks correspond to: A: Unmodified PHD2.Fe. B: Non-covalent adduct PHD2.Fe.2. C: Covalent adduct PHD2.Fe.1/2.
Fig. S6 The α,β-unsaturated amide 3 can covalently modify PHD2. (A) Schematic representation of the adducts formed upon incubation of 3 with PHD2.
PHD2. PHD2 (20 µM) was incubated (37 °C, 5 min, 1 h or 2 h) with equimolar FeSO4 and 3 or 4 before analysis by ESI-MS (cone voltage: 50 V or 200 V). Labelled peaks correspond to the following assigned complexes: A: unmodified PHD2.Fe; B: the non-covalent PHD2.Fe.3 adduct; C: the covalent PHD2.Fe.3 adduct.
2. Experimental procedures
1.1.1 Non-denaturing mass spectrometry1
Apo PHD2 was desalted using a Bio-Spin 6 Column (Bio-Rad, Hemel Hempstead, UK) into 15 mM ammonium acetate (pH 7.5). The stock solution was diluted with the same buffer to a final concentration of 100 μM. FeSO4·7H2O was dissolved in 20 mM HCl at a concentration of 100 mM. This solution was then diluted with MilliQ purified water to give a final working concentration of 100 μM. The protein was mixed with the Fe(II) solution and the inhibitor solution to give final concentrations of 20 μM PHD2, 20 μM Fe(II), and 20 μM inhibitor. The resultant solution was incubated for the appropriate time (specified in the text) at 37 […]
(5 min or 20 min) at 37 °C. After incubation, the samples were immediately analysed by ESI-MS. Data were acquired using a Q-TOF mass spectrometer (Q-TOF micro, Micromass, Altrincham, UK) interfaced with a Nanomate (Advion Biosciences, Ithaca, NY, USA) with a chip voltage of 1.70 kV and a delivery pressure 0.5 psi (1 psi = […]). The sample cone voltage was typically 200 or 50 V with a source temperature of 40 °C and with an acquisition/scan time of 10s/1s. Sample acquisition was performed in positive ion mode in the range of 2000-4000 m/z. The pressure at the interface between the atmospheric source and the high vacuum region was fixed at 6.30 mbar. External instrument calibration was achieved using sodium iodide.

The target of series [2] is T2, PHD2 (Homo sapiens, UniProt Q9GZT9).
T2 construct: PHD2_181–426 (hereafter PHD2); His6 (N, cleaved yes); made in house; host or cells: bacterial culture (2x TY, kanamycin, IPTG)
T2 sequence (Q9GZT9 181-426): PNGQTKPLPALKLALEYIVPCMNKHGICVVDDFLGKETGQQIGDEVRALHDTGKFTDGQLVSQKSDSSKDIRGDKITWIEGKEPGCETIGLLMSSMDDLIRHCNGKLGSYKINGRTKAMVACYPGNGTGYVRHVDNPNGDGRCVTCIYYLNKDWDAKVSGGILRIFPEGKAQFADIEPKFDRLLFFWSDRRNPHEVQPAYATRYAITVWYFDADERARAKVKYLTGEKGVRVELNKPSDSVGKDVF
Briefly: Peptide turnover assay (CODD hydroxylation) with MALDI-MS detection. The series is classed as biochemical. Particulars: >95% crosslinked PHD2·Fe·compound, 30 µM compound kept in the assay.

The target of series [3] is T3, PHD2 (residues 181-426) (Homo sapiens, UniProt Q9GZT9). The series can be described thus: biochemical.
T3 sequence (Q9GZT9 181-426): as above
Series [4] concerns the target T3, PHD2 (residues 181-426). The series can be described thus: AlphaScreen antibody based PHD2 inhibition assay. To be noted: preincubated versus not. On the technique in general: Alpha assays give light when donor and acceptor beads are brought close together.
A further series concerns HIF-1α in HeLa cells. Briefly: HIF-1α levels in HeLa cells by anti-HIF-1α immunoblotting. To be noted: 6 h. (In general: A western blot detects proteins with antibodies after separation by electrophoresis.)
The target in the next series is T4, KDM4A (Homo sapiens, UniProt O75164).
T4 sequence (O75164 1-1064): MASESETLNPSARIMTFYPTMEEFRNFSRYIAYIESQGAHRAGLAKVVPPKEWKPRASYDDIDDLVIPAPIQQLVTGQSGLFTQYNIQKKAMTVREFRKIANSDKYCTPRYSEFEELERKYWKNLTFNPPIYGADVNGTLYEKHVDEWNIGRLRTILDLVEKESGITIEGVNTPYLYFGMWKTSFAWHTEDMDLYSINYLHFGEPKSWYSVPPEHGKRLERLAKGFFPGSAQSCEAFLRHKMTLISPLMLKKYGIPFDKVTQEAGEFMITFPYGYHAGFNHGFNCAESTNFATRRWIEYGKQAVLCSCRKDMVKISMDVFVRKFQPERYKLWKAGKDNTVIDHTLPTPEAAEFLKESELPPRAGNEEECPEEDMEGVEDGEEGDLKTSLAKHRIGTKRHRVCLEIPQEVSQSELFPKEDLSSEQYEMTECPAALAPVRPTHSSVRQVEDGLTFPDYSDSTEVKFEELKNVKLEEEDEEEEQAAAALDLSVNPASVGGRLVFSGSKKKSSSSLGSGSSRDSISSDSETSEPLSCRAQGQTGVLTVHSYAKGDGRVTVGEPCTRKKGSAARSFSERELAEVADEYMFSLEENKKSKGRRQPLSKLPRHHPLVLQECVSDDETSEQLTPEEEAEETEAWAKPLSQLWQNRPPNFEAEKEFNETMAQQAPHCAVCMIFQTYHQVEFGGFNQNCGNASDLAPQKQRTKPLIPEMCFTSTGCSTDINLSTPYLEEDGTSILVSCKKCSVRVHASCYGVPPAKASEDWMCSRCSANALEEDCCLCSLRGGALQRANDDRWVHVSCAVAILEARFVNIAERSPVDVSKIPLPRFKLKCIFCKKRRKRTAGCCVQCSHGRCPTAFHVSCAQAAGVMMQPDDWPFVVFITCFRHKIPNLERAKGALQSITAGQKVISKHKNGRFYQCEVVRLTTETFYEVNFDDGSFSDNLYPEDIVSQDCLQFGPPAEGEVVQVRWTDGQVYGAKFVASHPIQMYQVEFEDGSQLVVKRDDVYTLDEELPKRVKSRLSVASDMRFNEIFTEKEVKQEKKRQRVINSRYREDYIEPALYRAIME
Briefly: AlphaScreen assay KDM4A.

Another series addresses T5, KDM4D (Homo sapiens, UniProt Q6B0I6).
T5 sequence (Q6B0I6 1-523): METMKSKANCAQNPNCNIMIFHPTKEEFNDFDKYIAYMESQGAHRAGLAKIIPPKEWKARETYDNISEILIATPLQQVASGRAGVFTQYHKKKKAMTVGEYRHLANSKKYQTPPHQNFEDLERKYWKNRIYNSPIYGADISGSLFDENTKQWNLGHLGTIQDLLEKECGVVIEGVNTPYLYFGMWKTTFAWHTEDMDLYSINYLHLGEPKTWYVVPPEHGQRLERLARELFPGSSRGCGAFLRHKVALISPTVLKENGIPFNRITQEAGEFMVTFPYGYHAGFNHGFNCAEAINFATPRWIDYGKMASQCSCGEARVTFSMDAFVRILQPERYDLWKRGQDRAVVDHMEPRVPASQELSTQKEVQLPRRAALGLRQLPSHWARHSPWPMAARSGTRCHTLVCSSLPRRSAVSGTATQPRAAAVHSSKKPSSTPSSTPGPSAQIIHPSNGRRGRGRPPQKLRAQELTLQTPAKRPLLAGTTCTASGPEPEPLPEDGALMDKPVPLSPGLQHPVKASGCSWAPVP
The series can be described thus: AlphaScreen assay KDM4D.

Another series has as its target KDM5B (Homo sapiens, UniProt Q9UGL1). Briefly: AlphaScreen assay KDM5B.
The next series concerns the target KDM6B (Homo sapiens, UniProt O15054). Briefly: AlphaScreen assay KDM6B.

T1 sequence (Q9GZT9 181-426): as the sequence (Q9GZT9 181-426) above
Sequence of KDM5B (Q9UGL1 whole entry, species assumed): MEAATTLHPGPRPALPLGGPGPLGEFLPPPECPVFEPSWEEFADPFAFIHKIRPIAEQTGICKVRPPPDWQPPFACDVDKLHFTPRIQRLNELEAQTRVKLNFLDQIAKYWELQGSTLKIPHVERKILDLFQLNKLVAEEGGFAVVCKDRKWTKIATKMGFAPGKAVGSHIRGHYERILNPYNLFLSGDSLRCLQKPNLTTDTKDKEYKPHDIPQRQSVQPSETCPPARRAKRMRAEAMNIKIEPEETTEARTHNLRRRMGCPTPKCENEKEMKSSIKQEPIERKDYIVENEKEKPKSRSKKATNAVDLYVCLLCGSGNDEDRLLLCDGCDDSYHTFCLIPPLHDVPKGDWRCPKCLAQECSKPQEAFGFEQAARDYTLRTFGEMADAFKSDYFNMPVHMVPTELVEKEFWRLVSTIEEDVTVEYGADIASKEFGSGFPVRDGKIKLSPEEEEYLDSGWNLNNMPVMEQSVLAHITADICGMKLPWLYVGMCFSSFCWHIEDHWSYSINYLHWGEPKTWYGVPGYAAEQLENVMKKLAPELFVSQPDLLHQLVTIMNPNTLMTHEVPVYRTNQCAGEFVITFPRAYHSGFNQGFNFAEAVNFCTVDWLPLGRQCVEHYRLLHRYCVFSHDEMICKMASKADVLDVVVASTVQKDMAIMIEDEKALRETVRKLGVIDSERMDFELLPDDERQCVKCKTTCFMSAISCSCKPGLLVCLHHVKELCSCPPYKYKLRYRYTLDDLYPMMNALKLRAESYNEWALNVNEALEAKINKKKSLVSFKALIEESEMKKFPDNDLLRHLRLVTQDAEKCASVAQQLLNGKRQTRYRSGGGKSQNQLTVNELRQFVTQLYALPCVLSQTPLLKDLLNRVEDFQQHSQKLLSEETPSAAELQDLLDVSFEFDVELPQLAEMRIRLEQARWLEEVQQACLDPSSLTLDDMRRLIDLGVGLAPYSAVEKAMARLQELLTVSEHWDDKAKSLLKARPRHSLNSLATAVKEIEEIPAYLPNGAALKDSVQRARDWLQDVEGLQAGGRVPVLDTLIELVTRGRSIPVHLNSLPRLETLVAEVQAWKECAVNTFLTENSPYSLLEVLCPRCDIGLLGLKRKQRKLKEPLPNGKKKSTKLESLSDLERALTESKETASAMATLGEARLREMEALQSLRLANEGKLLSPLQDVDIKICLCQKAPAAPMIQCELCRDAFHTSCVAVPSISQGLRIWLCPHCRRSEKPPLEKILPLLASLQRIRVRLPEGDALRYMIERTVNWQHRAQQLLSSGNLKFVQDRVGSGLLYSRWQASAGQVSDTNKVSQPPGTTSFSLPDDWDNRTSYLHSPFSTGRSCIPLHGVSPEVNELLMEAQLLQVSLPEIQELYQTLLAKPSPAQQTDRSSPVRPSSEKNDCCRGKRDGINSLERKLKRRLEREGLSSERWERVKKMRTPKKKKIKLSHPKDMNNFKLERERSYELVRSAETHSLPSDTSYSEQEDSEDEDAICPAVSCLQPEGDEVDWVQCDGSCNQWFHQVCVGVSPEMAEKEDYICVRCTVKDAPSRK
Sequence of KDM6B (O15054 whole entry, species assumed): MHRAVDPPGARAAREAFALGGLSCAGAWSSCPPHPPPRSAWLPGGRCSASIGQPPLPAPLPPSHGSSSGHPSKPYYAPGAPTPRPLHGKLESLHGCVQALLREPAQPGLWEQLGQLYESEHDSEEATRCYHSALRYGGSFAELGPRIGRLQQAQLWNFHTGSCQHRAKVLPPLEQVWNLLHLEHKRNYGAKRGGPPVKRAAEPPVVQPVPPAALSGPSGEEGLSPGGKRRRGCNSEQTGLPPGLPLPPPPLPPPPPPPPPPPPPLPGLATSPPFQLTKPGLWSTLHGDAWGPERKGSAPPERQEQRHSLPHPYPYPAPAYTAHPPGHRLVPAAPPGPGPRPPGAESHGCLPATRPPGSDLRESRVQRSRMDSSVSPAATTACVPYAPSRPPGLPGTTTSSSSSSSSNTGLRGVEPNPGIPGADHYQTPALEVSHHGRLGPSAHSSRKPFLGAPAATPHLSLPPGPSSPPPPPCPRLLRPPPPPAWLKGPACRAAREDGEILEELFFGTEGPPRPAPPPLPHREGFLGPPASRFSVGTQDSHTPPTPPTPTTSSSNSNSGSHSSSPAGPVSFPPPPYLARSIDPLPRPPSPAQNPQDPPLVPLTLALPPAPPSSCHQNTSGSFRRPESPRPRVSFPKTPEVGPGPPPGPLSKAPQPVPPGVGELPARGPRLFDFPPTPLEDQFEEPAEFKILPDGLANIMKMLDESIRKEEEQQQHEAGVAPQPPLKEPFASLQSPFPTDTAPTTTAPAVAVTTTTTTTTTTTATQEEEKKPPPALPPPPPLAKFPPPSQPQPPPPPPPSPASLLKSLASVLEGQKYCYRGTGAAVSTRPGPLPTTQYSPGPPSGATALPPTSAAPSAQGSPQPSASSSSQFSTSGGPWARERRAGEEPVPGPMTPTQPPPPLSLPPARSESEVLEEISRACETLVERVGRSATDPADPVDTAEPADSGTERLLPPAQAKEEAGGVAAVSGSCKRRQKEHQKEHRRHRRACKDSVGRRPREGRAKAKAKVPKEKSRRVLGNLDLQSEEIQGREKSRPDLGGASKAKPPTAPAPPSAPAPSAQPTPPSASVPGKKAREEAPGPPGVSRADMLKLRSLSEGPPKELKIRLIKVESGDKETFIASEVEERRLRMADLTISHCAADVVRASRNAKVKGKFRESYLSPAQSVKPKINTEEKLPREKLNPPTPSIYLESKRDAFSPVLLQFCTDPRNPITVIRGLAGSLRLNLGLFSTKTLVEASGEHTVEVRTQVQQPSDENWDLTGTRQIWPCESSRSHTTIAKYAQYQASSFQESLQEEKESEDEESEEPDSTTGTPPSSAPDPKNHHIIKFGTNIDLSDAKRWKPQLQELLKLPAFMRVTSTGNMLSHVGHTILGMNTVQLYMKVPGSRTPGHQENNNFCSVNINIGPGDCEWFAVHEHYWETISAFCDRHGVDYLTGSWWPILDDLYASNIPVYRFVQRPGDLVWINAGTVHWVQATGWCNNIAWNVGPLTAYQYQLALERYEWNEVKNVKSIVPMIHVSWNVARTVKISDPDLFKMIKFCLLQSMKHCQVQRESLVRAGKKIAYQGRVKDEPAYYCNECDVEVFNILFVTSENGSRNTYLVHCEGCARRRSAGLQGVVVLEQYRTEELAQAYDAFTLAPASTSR

Turning to `O=C(O)CNC(=O)c1nc(Cl)c2ccccc2c1O` [FG2216], the IC50 (usually the midpoint of a concentration-inhibition curve) with PHD2 [1] is […].
For `O=Cc1ccc(O)c(C(=O)NCC(=O)O)c1` [S1], at PHD2_181–426, the “covalent modification of PHD2” value was “No covalent modification”.
For the compound `O=Cc1cccc(C(=O)NCC(=O)O)n1` [S4], at PHD2_181–426, the “covalent modification of PHD2” value is given as “Some apparent covalent modification”.
In the case of `O=Cc1cccc(C(=O)NCC(=O)O)c1O` [compound 1], at PHD2_181–426 (37 °C), the “condensation (covalent adduct) with PHD2 after 5 min” value is recorded as “complete condensation” and the “covalent reaction with PHD2 after 20 min” value is listed as “react with PHD2”. For the same compound, at PHD2 [2], the “catalytic activity (CODD hydroxylation) of PHD2 covalently modified by the compound” value was “apparently active”. On PHD2 (residues 181-426) [3], this compound came in with an IC50 of more than 100 µM. Also, the “drop of IC50 on preincubation” value on PHD2 (residues 181-426) [4] was approximately 2 fold. In the series on HIF-1α in HeLa cells (50 or 250 µM), the “HIF-1α upregulation in HeLa cells” value is listed as “no upregulation of HIF-1α”.
As to `O=Cc1c(O)c(C(=O)NCC(=O)O)cc2ccccc12` [compound 2], on PHD2_181–426 (37 °C), the “condensation (covalent adduct) with PHD2 after 5 min” value was approximately 30% and the “covalent reaction with PHD2 after 20 min” value is recorded as “react with PHD2”. In addition, the “catalytic activity (CODD hydroxylation) of PHD2 covalently modified by the compound” value on PHD2 [2] is “apparently active”. On PHD2 (residues 181-426) [3], this compound returned an IC50 of more than 100 µM. For the same compound, the “drop of IC50 on preincubation” value on PHD2 (residues 181-426) [4] was approximately 2 fold. Besides, the “HIF-1α upregulation in HeLa cells” value with HIF-1α in HeLa cells (50 or 250 µM) is recorded as “no upregulation of HIF-1α”.
Consider `C=CCc1cccc(C(=O)NCC(=O)O)c1O` [compound 4], for which the “covalent adduct with PHD2 after up to 2 h” value on PHD2_181–426 (equimolar PHD2/Fe(II), 37 °C, up to 2 h) is on record as “No covalent adduct”.
Regarding `CCOC(=O)CNC(=O)c1cccc(C=O)c1O` [compound 5], the “HIF-1α upregulation in HeLa cells” value in the series with HIF-1α in HeLa cells (0-500 μM) is “caused upregulation of HIF-1α”. The “HIF-1α upregulation in HeLa cells at high concentrations” value with HIF-1α in HeLa cells (>250 μM) was “more pronounced HIF-1α upregulation”.
Take `C=CC(=O)Nc1cc(N=[N+]=[N-])cc(C(=O)NCC(=O)O)c1O` [compound 7]: the IC50 at KDM4A came out at 18.2 µM; at KDM4D, 10.3 µM; against KDM5B, 13.6 µM; on KDM6B it was 8.4 µM.

Values taken from PMC6350621, “Small-molecules that covalently react with a human prolyl hydroxylase – towards activity modulation and substrate capture” (Chemical Communications (Cambridge, England), 2018).
